Like-named read-outs stand apart in the source and are kept apart here.

For data set [1] the following is noted: 21-membered ring.

As to `CCOC(=O)CC(c1ccc2c(c1)CNCC2)c1ccc2c(nnn2CCCCCN2CCN(C(=O)Oc3ccc([N+](=O)[O-])cc3)CC2)c1C` (stereo not shown), the ring closure, yield after HPLC in data set [1] (the molecule shown is the open-chain precursor, other bond, K2CO3 (microwave), DMF, 10.2 mM, 130.0 °C, 2 steps) worked out at 72%.

Turning to `CCOC(=O)CC1c2ccc(C)c(c2)CN(C)C(=O)c2ccc(cc2)COCCCn2nnc3c(C)c1ccc32` (stereo not shown), the ring closure, isolated yield (from CCOC(=O)CC(c1ccc(C)c(CNC)c1)c1ccc2c(nnn2CCCOCc2ccc(C(=O)O)cc2)c1C, amide bond, 21-membered ring, HATU/DIEA, DMF, 46.6 mM, 20.0 °C, 2.0 h) was determined as 95.2%.

As to `CCOC(=O)CC1c2ccc3c(c2)CN(CC3)C(=O)C2CCN(CCCCCn3nnc4c(C)c1ccc43)CC2` (stereo not shown), under “from CCOC(=O)CC(c1ccc2c(c1)CNCC2)c1ccc2c(nnn2CCCCCN2CCC(C(=O)O)CC2)c1C, amide bond, 21-membered ring, HATU/DIEA, DMF, 96.0 mM, 0.0 °C”, the ring closure, isolated yield was determined as 79.5%.

Turning to `CCOC(=O)CC1c2ccc3c(c2)CN(CC3)C(=O)C2CCN(CCOCCn3nnc4c(C)c1ccc43)CC2` (stereo not shown), the ring closure, isolated yield (from CCOC(=O)CC(c1ccc2c(c1)CNCC2)c1ccc2c(nnn2CCOCCN2CCC(C(=O)O)CC2)c1C, amide bond, 21-membered ring, HATU/DIEA, DMF, 142.0 mM, 25.0 °C) worked out at 38.2%.

Consider `CCOC(=O)CC1c2ccc3c(c2)CN(CC3)S(=O)(=O)N2CCC(CC2)OCC=CCn2nnc3c(C)c1ccc32` (stereo not shown), for which the ring closure, yield after HPLC in data set [1] (from C=CCOC1CCN(S(=O)(=O)N2CCc3ccc(C(CC(=O)OCC)c4ccc5c(nnn5C/C=C/C)c4C)cc3C2)CC1, rcm bond, Grubbs catalyst, DCM, 6.2 mM, 40.0 °C, 19.0 h) was found to be 89.4%.

For the molecule `CCOC(=O)CC1c2ccc3c(c2)CN(CC3)S(=O)(=O)c2ccc(cc2)OCCOCCn2nnc3c(C)c1ccc32` (stereo not shown), the ring closure, isolated yield (from CCOC(=O)CC(c1ccc2c(c1)CN(S(=O)(=O)c1ccc(O)cc1)CC2)c1ccc2c(nnn2CCOCCO)c1C, ether bond, 22-membered ring, DEAD/PPh3, DCM/THF, 28.8 mM, 20.0 °C, 4.0 h) was found to be 73.6%.

In the case of `CCOC(=O)CC1c2cccc(c2)CN(C)C(=O)c2ccc(cc2)COCCCn2nnc3c(C)c1ccc32` (stereo not shown), the ring closure, isolated yield (from CCOC(=O)CC(c1cccc(CNC)c1)c1ccc2c(nnn2CCCOCc2ccc(C(=O)O)cc2)c1C, amide bond, 21-membered ring, HATU/DIEA, DMF, 73.0 mM, 25.0 °C) turned out to be 58.2%.

In data set [1] (the molecule shown is the open-chain precursor, other bond, K2CO3/microwave, DMF, 24.7 mM, 120.0 °C), `CCOC(=O)C[C@@H](c1ccc2c(c1)CNCC2)c1ccc2c(nnn2CCCOCC2CCN(C(=O)Oc3c(F)c(F)c(F)c(F)c3F)CC2)c1C` gave a ring closure, yield after HPLC of 20.9%.

Turning to `COC(=O)CC1c2ccc3c(nnn3CCOCCOC3CCN(CC3)C(=O)c3ccc4c(c3)CN1CC4)c2C` (stereo not shown), the ring closure, isolated yield (from COC(=O)CC(c1ccc2c(nnn2CCOCCOC2CCNCC2)c1C)N1CCc2ccc(C(=O)O)cc2C1, amide bond, 22-membered ring, HATU/DIEA, DMF, 35.4 mM, 20.0 °C, 2.0 h) was determined as 90.4%.

In the case of `Cc1c2ccc3c1nnn3CCOCCN1CCN(CC1)C(=O)c1ccc3ccc(cc3c1)C2CC(=O)OC(C)(C)C` (stereo not shown), the ring closure, isolated yield (from Cc1c(C(CC(=O)OC(C)(C)C)c2ccc3ccc(C(=O)O)cc3c2)ccc2c1nnn2CCOCCN1CCNCC1, amide bond, 21-membered ring, HATU/DIEA, DMF, 72.0 mM, 25.0 °C, 19.0 h) is 19.5%.

The record behind these values is patent US20260234163A1, “NOVEL COMPOUNDS AND USES THEREOF” (ACELINK THERAPEUTICS, INC., priority 2023, published 2026).
